Assay results published in patent US9388174B2, “Azole benzene derivative” (TEIJIN PHARMA LIMITED, priority 2013, dated 2016).

These compounds were tested against T1, oxidase-type xanthine oxidoreductase (from buttermilk) (Bos taurus, UniProt P80457) (assay: xanthine oxidase inhibitory activity (change of absorbance at 290 nm)). Details: xanthine substrate, read-out: Inhibitor Activity.
T1 construct: purchased Calbiochem Novabiochem Corp; host or cells: buttermilk (natural source)
Type: biochemical
Description: Test compound was dissolved in DMSO (manufactured by Sigma Co.) to prepare a 20 mM solution. The solution was adjusted to an optimal concentration and used for the testing.
This evaluation was carried out by measuring oxidase-type xanthine oxidoreductase activity. Concretely, a xanthine (manufactured by Sigma Co.) solution was prepared at 10 mM using a 20 mM sodium hydroxide solution and then mixed with 100 mM phosphate buffer to adjusted to 30 μM. 75 μL of the solution was added to each well of the 96-well plate. The test compound diluted with DMSO at 100 times of a final concentration was added to each well at 1.5 μL per well. […] Immediately after mixing, the change of absorbance at 290 nm was measured for 5 minutes. The enzyme activity of DMSO solution without test compound was used as 100% control, and the inhibitory rate of the test compounds was calculated. Fifty percent inhibitory concentration of the test compounds on the oxidase-type xanthine oxidoreductase activity was calculated by fitting to the dose-response curve.

T1 sequence (P80457 whole entry): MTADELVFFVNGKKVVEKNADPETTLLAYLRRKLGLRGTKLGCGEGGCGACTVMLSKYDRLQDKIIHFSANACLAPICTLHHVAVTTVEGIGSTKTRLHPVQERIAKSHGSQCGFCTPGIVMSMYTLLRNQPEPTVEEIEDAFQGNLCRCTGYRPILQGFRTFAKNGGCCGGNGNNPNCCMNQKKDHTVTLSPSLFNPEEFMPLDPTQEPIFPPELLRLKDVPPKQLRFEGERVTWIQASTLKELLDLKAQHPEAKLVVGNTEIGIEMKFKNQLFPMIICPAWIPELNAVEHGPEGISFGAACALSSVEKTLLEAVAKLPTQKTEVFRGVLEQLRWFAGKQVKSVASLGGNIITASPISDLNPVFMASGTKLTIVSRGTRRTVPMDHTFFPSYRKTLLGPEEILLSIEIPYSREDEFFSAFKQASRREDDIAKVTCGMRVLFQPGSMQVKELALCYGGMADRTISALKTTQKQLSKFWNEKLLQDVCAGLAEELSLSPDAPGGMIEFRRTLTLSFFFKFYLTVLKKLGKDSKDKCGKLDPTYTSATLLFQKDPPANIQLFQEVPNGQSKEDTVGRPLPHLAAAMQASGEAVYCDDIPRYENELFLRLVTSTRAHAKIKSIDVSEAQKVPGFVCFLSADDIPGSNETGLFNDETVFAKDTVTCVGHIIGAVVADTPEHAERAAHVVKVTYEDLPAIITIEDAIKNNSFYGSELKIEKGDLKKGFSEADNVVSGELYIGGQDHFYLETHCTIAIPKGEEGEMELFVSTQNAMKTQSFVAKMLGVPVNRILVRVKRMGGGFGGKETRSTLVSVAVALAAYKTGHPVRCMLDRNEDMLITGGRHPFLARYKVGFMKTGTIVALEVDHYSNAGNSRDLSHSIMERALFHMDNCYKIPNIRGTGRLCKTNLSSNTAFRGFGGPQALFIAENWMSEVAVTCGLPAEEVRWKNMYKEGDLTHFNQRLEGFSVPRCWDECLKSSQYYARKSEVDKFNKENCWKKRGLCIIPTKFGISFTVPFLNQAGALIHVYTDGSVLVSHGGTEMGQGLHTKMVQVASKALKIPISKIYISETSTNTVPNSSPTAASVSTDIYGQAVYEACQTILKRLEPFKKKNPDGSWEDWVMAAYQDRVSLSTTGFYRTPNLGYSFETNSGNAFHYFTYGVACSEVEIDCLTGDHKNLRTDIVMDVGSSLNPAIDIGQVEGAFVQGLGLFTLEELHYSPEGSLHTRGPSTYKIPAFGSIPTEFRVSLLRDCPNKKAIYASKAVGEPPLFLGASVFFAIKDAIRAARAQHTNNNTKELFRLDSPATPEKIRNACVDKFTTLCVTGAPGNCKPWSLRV

Structure (SMILES) | IC50 [nM]
Cc1nc(-c2ccc(OCC(C)C)c(-n3ccnc3)c2)sc1C(=O)O [Compound No. 1, 2-[3-(1H-imidazol-1-yl)-4-(2-methylpropoxy)phenyl]-4-methyl-1,3-thiazole-5-carboxylic acid] | 1 to 5
Cc1nc(-c2ccc(OCC(C)(C)C)c(-n3ccnc3)c2)sc1C(=O)O [Compound No. 2, 2-[4-(2,2-dimethylpropoxy)-3-(1H-imidazol-1-yl)phenyl]-4-methyl-1,3-thiazole-5-carboxylic acid] | 5 to 10
Cc1nc(-c2ccc(OCC3CCC3)c(-n3ccnc3)c2)sc1C(=O)O [Compound No. 3, 2-[4-(cyclobutylmethoxy)-3-(1H-imidazol-1-yl)phenyl]-4-methyl-1,3-thiazole-5-carboxylic acid] | 5 to 10
Cc1nc(-c2ccc(OCC3CCCC3)c(-n3ccnc3)c2)sc1C(=O)O [Compound No. 4, 2-[4-(cyclopentylmethoxy)-3-(1H-imidazol-1-yl)phenyl]-4-methyl-1,3-thiazole-5-carboxylic acid] | 5 to 10
Cc1nc(-c2ccc(OC3CCCC3)c(-n3ccnc3)c2)sc1C(=O)O [Compound No. 5, 2-[4-(cyclopentyloxy)-3-(1H-imidazol-1-yl)phenyl]-4-methyl-1,3-thiazole-5-carboxylic acid] | 5 to 10
Cc1nc(-c2ccc(Oc3ccccc3)c(-n3ccnc3)c2)sc1C(=O)O [Compound No. 7, 2-[3-(1H-imidazol-1-yl)-4-phenoxyphenyl]-4-methyl-1,3-thiazole-5-carboxylic acid] | > 10
Cc1nc(-c2ccc(Oc3ccccc3F)c(-n3ccnc3)c2)sc1C(=O)O [Compound No. 8, 2-[4-(2-fluorophenoxy)-3-(1H-imidazol-1-yl)phenyl]-4-methyl-1,3-thiazole-5-carboxylic acid] | > 10
Cc1nc(-c2ccc(Oc3ccccc3)c(-n3cncn3)c2)sc1C(=O)O [Compound No. 15] | > 10
Cc1nc(-c2ccc(OC(C)C)c(-n3ccnn3)c2)sc1C(=O)O [Compound No. 16, 4-methyl-2-[4-(propan-2-yloxy)-3-(1H-1,2,3-triazol-1-yl)phenyl]-1,3-thiazole-5-carboxylic acid] | 1 to 5
Cc1nc(-c2ccc(OC(C)C)c(-n3cnnn3)c2)sc1C(=O)O [Compound No. 24, 4-methyl-2-[4-(propan-2-yloxy)-3-(1H-1,2,3,4-tetrazole-1-yl)phenyl]-1,3-thiazole-5-carboxylic acid] | 1 to 5
Cc1nc(-c2ccc(OCC(C)CO)c(-n3cnnn3)c2)sc1C(=O)O (stereo not shown) [Compound No. 29, 2-[4-(3-hydroxy-2-methylpropoxy)-3-(1H-1,2,3,4-tetrazol-1-yl)phenyl]-4-methyl-1,3-thiazole-5-carboxylic acid] | 1 to 5
Cc1nc(-c2ccc(OCC(C)(C)O)c(-n3cnnn3)c2)sc1C(=O)O [Compound No. 30, 2-[4-(2-hydroxy-2-methylpropoxy)-3-(1H-1,2,3,4-tetrazol-1-yl)phenyl]-4-methyl-1,3-thiazole-5-carboxylic acid] | 1 to 5
Cc1nc(-c2ccc(Oc3ccccc3)c(-n3cnnn3)c2)sc1C(=O)O [Compound No. 33, 4-methyl-2-[4-phenoxy-3-(1H-1,2,3,4-tetrazol-1-yl)phenyl]-1,3 thiazole-5-carboxylic acid] | 1 to 5
Cc1nc(-c2ccc(SCC(C)C)c(-n3cnnn3)c2)sc1C(=O)O [Compound No. 49, 4-methyl-2-{4-[(2-methylpropyl)sulfanyl]-3-(1H-1,2,3,4-tetrazol-1-yl)phenyl}-1,3-thiazole-5-carboxylic acid] | 1 to 5
CCN(CC)c1ccc(-c2nc(C)c(C(=O)O)s2)cc1-n1cnnn1 [Compound No. 52, 2-[4-(N,N-diethylamino)-3-(1H-1,2,3,4-tetrazol-1-yl)phenyl]-4-methyl-1,3-thiazole-5-carboxylic acid] | 1 to 5
Cc1nc(-c2ccc(N3CCCC3)c(-n3cnnn3)c2)sc1C(=O)O [Compound No. 53, 4-methyl-2-[4-(pyrrolidin-1-yl)-3-(1H-1,2,3,4-tetrazol-1-yl)phenyl]-1,3-thiazole 5-carboxylic acid] | 1 to 5
Cc1nc(-c2ccc(OC3CCCCC3)c(-n3ccnc3)c2)sc1C(=O)O [compound 6, 2-[4-(cyclohexyloxy)-3-[1H-imidazol-1-yl)phenyl]-4-methyl-1,3-thiazole-5-carboxylic acid] | 5 to 10

Results, then the compound that gave them:

IC50 [nM] | Structure (SMILES)
1 to 5 | Cc1nc(-c2ccc(OCC(C)C)c(-n3ccnc3C)c2)sc1C(=O)O [compound 9, 4-methyl-2-[3-(2-methyl-1H-imidazol-1-yl)-4-(2-methylpropoxy)phenyl]-1,3-thiazole-5-carboxylic acid]
5 to 10 | Cc1nc(-c2ccc(OCC(C)C)c(-n3nnnc3C)c2)sc1C(=O)O [compound 10, 4-methyl-2-[3-(5-methyl-1H-1,2,3,4-tetrazol-1-yl)-4-(2-methylpropoxy)phenyl]-1,3-thiazole-5-carboxylic acid]
1 to 5 | Cc1nc(-c2ccc(OCC(C)C)c(-n3cnc4ccccc43)c2)sc1C(=O)O [compound 11, 2-[3-(1H-1,3-benzodiazol-1-yl)-4-(2-methylpropoxy)phenyl]-4-methyl-1,3-thiazole-5-carboxylic acid]
1 to 5 | Cc1ncn(-c2cc(-c3nc(C)c(C(=O)O)s3)ccc2OCC(C)C)n1 [compound 12, 4-methyl-2-[3-(3-methyl-1H-1,2,4-triazol-1-yl)-4-(2-methylpropoxy)phenyl]-1,3-thiazole-5-carboxylic acid]
1 to 5 | Cc1nc(-c2ccc(OCC(C)C)c(-n3cncn3)c2)sc1C(=O)O [compound 13, 4-methyl-2-[4-(2-methylpropoxy)-3-(1H-1,2,4-triazol-1-yl)phenyl]-1,3-thiazole-5-carboxylic acid]
1 to 5 | Cc1nc(-c2ccc(OCC(C)C)c(-n3ncnc3C)c2)sc1C(=O)O [compound 14, 4-methyl-2-[3-(5-methyl-1H-1,2,4-triazol-1-yl)-4-(2-methylpropoxy)phenyl]-1,3-thiazole-5-carboxylic acid]
1 to 5 | Cc1nc(-c2ccc(OCC(C)C)c(-n3ccnn3)c2)sc1C(=O)O [compound 17, 4-methyl-2-[4-(2-methylpropoxy)-3-(1H-1,2,3-triazol-1-yl)phenyl]-1,3-thiazole-5-carboxylic acid]
1 to 5 | Cc1nc(-c2ccc(OCC(C)(C)C)c(-n3ccnn3)c2)sc1C(=O)O [compound 18, 2-[4-(2,2-dimethylpropoxy)-3-(1H-1,2,3-triazol-1-yl)phenyl]-4-methyl-1,3-thiazole-5-carboxylic acid]
1 to 5 | Cc1nc(-c2ccc(OCC3CCC3)c(-n3ccnn3)c2)sc1C(=O)O [compound 19, 2-[4-(cyclobutylmethoxy)-3-(1H-1,2,3-triazol-1-yl)phenyl]-4-methyl-1,3-thiazole-5-carboxylic acid]
1 to 5 | CC(C)Oc1ccc(-c2ncc(C(=O)O)s2)cc1-n1ccnn1 [compound 20, 2-[4-(propan-2-yloxy)-3-(1H-1,2,3-triazol-1-yl)phenyl]-1,3-thiazole-5-carboxylic acid]
1 to 5 | CC(C)COc1ccc(-c2ncc(C(=O)O)s2)cc1-n1ccnn1 [compound 21, 2-[4-(2-methylpropoxy)-3-(1H-1,2,3-triazol-1-yl)phenyl]-1,3-thiazole-5-carboxylic acid]
> 10 | Cc1nc(-c2ccc(Oc3ccccc3)c(-n3ccnn3)c2)sc1C(=O)O [compound 22, 4-methyl-2-[4-phenoxy-3-(1H-1,2,3-triazol-1-yl)phenyl]-1,3-thiazole-5-carboxylic acid]
1 to 5 | Cc1nc(-c2ccc(OCC(C)(C)C)c(-n3cnnn3)c2)sc1C(=O)O [compound 26, 2-[4-(2,2-dimethylpropoxy)-3-(1H-1,2,3,4-tetrazol-1-yl)phenyl]-4-methyl-1,3-thiazole-5-carboxylic acid]
1 to 5 | Cc1nc(-c2ccc(OCC3CCC3)c(-n3cnnn3)c2)sc1C(=O)O [compound 27, 2-[4-(cyclobutylmethoxy)-3-(1H-1,2,3,4-tetrazol-1-yl)phenyl]-4-methyl-1,3-thiazole-5-carboxylic acid]
1 to 5 | Cc1nc(-c2ccc(OC3CCCC3)c(-n3cnnn3)c2)sc1C(=O)O [compound 28, 2-[4-(cyclopentyloxy)-3-(1H-1,2,3,4-tetrazol-1-yl)phenyl]-4-methyl-1,3-thiazole-5-carboxylic acid]
1 to 5 | CC(C)Oc1ccc(-c2ncc(C(=O)O)s2)cc1-n1cnnn1 [compound 31, 2-[4-(propan-2-yloxy)-3-(1H-1,2,3,4-tetrazol-1-yl)phenyl]-1,3 thiazole-5-carboxylic acid]
1 to 5 | CC(C)COc1ccc(-c2ncc(C(=O)O)s2)cc1-n1cnnn1 [compound 32, 2-[4-(2-methylpropoxy)-3-(1H-1,2,3,4-tetrazol-1-yl)phenyl]-1,3 thiazole-5-carboxylic acid]
1 to 5 | Cc1nc(-c2ccc(Oc3ccccc3F)c(-n3cnnn3)c2)sc1C(=O)O [compound 34, 2-[4-(2-fluorophenoxy)-3-(1H-1,2,3,4-tetrazol-1-yl)phenyl]-4-methyl-1,3-thiazole-5-carboxylic acid]
1 to 5 | COc1ccccc1Oc1ccc(-c2nc(C)c(C(=O)O)s2)cc1-n1cnnn1 [compound 35, 2-[4-(2-methoxyphenoxy)-3-(1H-1,2,3,4-tetrazol-1-yl)phenyl]-4-methyl-1,3-thiazole-5-carboxylic acid]
1 to 5 | Cc1nc(-c2ccc(Oc3c(F)cccc3F)c(-n3cnnn3)c2)sc1C(=O)O [compound 36, 2-[4-(2,6-difluorophenoxy)-3-(1H-1,2,3,4-tetrazol-1-yl)phenyl]-4-methyl-1,3-thiazole-5-carboxylic acid]
